Where two headings read alike, the source gives them in different places.
Tests used:
[1] = system: HeLa cells; experiment: MTT cell viability assay, HeLa; type: cell-based; conditions: 24 h; for inhibition at 100 µM: read-out: %Inhibition at 100 µM, HeLa cell line; for IC50: read-out: IC50 (µM) ± SEM, HeLa Cell Line
Procedure: (§1) The anti-proliferative activity of the studied compounds was determined against breast (MCF-7) and cervical (HeLa) cancer cells by the MTT cell viability assay as described earlier[44],[45]. BHK-21 cells were used as non-cancerous cells to study the effect of these compounds on normal cells. Briefly, 1 × 10^4 cells/well were seeded in 96-well microtiter plate and placed in an incubator (Heracell™ VIOS 160i, Thermo-Fisher Scientific) set for 5% CO2 at 37 °C. The stock solutions of compounds were prepared at 10 mM concentration in DMSO. Initial working solutions were prepared in cell culture medium at 1 mM concentration. […] After 24 h, medium in each well was aspirated and cells were treated for 4 h with serum free medium containing 0.2 mg/mL MTT reagent. The solubilizing reagent (10% acidified sodium dodecyl sulfate in propanol in a 1:1 ratio) was added to solubilize formazan crystals. Plates were kept at 37 °C for 30 min and then placed on a gyratory shaker for few min for complete solubilization of formazan crystals. The optical density was measured at 570 nm by microplate reader and IC50 values were calculated from three independent experiments as previously reported.

[2] = system: MCF-7 cells; experiment: Oxidative stress (H2DCF-DA staining), MCF-7; type: cell-based; conditions: IC50 and 2 × IC50
Procedure: (§2) After washing with sterile PBS, cells were fixed and 10 µL (0.01 mg/mL) of H2DCF-DA dye was added on microscopic slides. After an incubation of 10 min at room temperature in the dark, fluorescence photomicrographs were obtained as previously reported.

[3] = system: caspase-9; experiment: Activated caspase-9 in MCF-7 cells; type: cell-based; conditions: versus control
From the text: (§3) Results were represented as fold increase in activated caspase-9 and caspase-3/7 as compared to control as previously reported.

[4] = system: MCF-7 cells; experiment: LDH cytotoxicity assay, MCF-7; type: cell-based; conditions: IC50 and 2 × IC50
Procedure: (§4) Briefly, 1 × 10^4 cells/well were seeded in a flat bottom 96 well cell culture plate and kept for overnight incubation. Cells were treated with potent compounds 5j and 5k at the IC50 and 2 × IC50 values. The plate was centrifuged at 1500 rpm for 3 min and the supernatant (50 µL) transferred to a new sterile 96-well plate. After addition of substrate mix (50 µL), plate was placed at room temperature for 30 min. The absorbance was measured at 490 nm and 680 nm using microplate reader (FLUOstar Omega, Ortenberg, Germany). Cytotoxicity was measured as described earlier.

[5] = system: BHK-21 cells; experiment: MTT cell viability assay, non-cancerous BHK-21; type: cell-based, Baby Hamster; conditions: Mesocricetus auratus, 24 h, read-out: IC50 (µM) ± SEM, BHK-21 cell line
Procedure: as §1

[6] = system: MCF-7 cells; experiment: Fluorescence microscopy of apoptosis (PI, DAPI), MCF-7; type: cell-based; conditions: IC50 and 2 × IC50, 24 h
Procedure: (§5) Morphological changes in compound treated cancer cells were identified using propidium iodide (PI) and 4′,6-diamidino-2-phenylindole (DAPI) staining with observing under a fluorescence microscope (Nikon ECLIPSE Ni–U, Japan). […] After 24 h, media was aspirated, cells were washed with sterile phosphate buffered saline (PBS) and fixed by using 4% formalin and 0.1% Triton X–100 as adherent cells fixation solution. Further, 10 µL (0.01 mg/mL) of PI or DAPI solution was added on slides and kept for 10 min in dark. Fluorescence photomicrographs were captured as previously reported.

[7] = system: MCF-7 cells; experiment: MTT cell viability assay, MCF-7; type: cell-based; conditions: Homo sapiens; for inhibition at 100 µM: MCF7, 100 µM, 24 h, read-out: %Inhibition at 100 µM, MCF-7 cell line
Procedure: as §1

[8] = system: MCF-7 cells; experiment: Mitochondrial membrane potential (JC-1), MCF-7; type: cell-based; conditions: IC50 and 2 × IC50, 24 h
Procedure: (§6) Mitochondrial membrane potential was determined by a fluorimetric method using fluorescent dye 5′,5′,6′,6′-tetrachloro-1′,1′,3′,3′-[…] (JC-1). Briefly, 1 × 10^5 cells were grown and treated with IC50 and 2 × IC50 values of compounds 5j and 5k for 24 h. Cells were harvested, pelletized and treated with 0.25 µM of fluorescent dye JC-1. Each sample was transferred to a flat-bottomed black 96-well plate, which was kept in the dark for 20 min. Fluorescence emission was measured by a fluorescent microplate reader (FLUOstar Omega BMG Labtech, Germany) at 590 nm and 520 nm for j-aggregates and j-monomers. Results were measured as ratio of red/green fluorescence as previously reported.

[9] = system: caspase-7; experiment: Activated caspase-7 in MCF-7 cells; type: cell-based; conditions: versus control
From the text: as §3

[10] = system: HeLa cells; experiment: Mitochondrial membrane potential (JC-1), HeLa; type: cell-based; conditions: IC50 and 2 × IC50, 24 h
Procedure: as §6

[11] = system: HeLa cells; experiment: Fluorescence microscopy of apoptosis (PI, DAPI), HeLa; type: cell-based; conditions: IC50 and 2 × IC50, 24 h
Procedure: as §5

[12] = system: herring sperm DNA; experiment: DNA binding studies (UV absorption); conditions: 200 µM compound; 0 to 396 µM DNA; hypochromicity, no red or blue shift
Procedure: A stock solution of 5 mg of DNA was prepared in 10 mL of distilled water and the purity of the DNA (A260/A280) was in the range of 1.6 to 1.9. Compound 5j was tested at a final concentration of 200 µM with varying end concentrations (0 to 396 µM) of DNA. The plate was placed at room temperature for 30 min and the UV absorption spectrum was recorded by microplate reader (FLUOstar Omega BMG Labtech, Ortenberg, Germany).

[13] = system: caspase-9; experiment: Activated caspase-9 in HeLa cells; type: cell-based; conditions: versus control
From the text: as §3

[14] = system: HeLa cells; experiment: Oxidative stress (H2DCF-DA staining), HeLa; type: cell-based; conditions: IC50 and 2 × IC50
Procedure: as §2

[15] = system: HeLa cells; experiment: Cell cycle analysis by flow cytometry; type: cell-based; conditions: IC50 and 2 × IC50, PI staining
Procedure: Briefly, HeLa cells (2 × 10^5 cells/mL) were grown and treated with IC50 and 2 × IC50 values of potent compound 5j. Cells were harvested and washed three times with PBS to remove traces of cell culture medium. Cells were fixed in 70% ethanol for 24 h at − 20 °C. Pelletized cells were then re-suspended in 1 mL of a solution containing PI (20 µg/mL), RNase A (50 µg/mL) and 0.1% (v/v) Triton X-100. Samples were kept in the dark for 30 min at room temperature and analyzed within an hour as reported earlier.

[16] = system: HeLa cells; experiment: LDH cytotoxicity assay, HeLa; type: cell-based; conditions: IC50 and 2 × IC50
Procedure: as §4

[17] = system: caspase-3/7; experiment: Activated caspase-3/7 in HeLa cells; type: cell-based; conditions: versus control
From the text: as §3

[18] = system: HeLa cells; experiment: Alkaline comet assay; type: cell-based
Procedure: Comet assay is a sensitive method to determine DNA damage which was performed after some modifications in a published protocol. […] The cervical cancer (HeLa) cells were treated with IC50 value of potent compound 5j for 24 h. Cells were harvested, collected and centrifuged to obtain a pellet. Pelleted cells were re-suspended in media. Untreated cells were used as control cells. For the positive control, 2 × 10^4 cells were treated with 20 µM of freshly prepared hydrogen peroxide for 30 min. Slides were prepared by coating with 1% normal melting point agarose (NMPA) on one side and then dried. Samples (2 × 10^4 cells/sample) were re-suspended in 1 mL of PBS. In a tube, 0.4 mL cell suspension was mixed with 1.2 mL of 0.9% low melting point agarose (LMPA) and mixed thoroughly by pipetting. A cell suspension of 65 µL was laid on coated slide and evenly distributed by placing a coverslip over it. Slides were placed at − 20 °C for 10 min. Then the slides were placed at 4 °C in the dark in a lysis buffer of 100 mM EDTA, 10 mM Trizma base, 2.5 M sodium chloride, 10% DMSO and 1% Triton X-100 in distilled water with a pH of 10. After an overnight incubation, slides were washed with chilled distilled water. These slides were then placed in electrophoresis chamber (Wealtec, USA) having chilled (4 °C) alkali unwinding solution (300 mM sodium hydroxide and 1 mM EDTA in distilled water). Electrophoresis was carried out at an adjusted voltage (between 0.7 and 1.0 V/cm) for 35 min in an electrophoresis tank. Slides were then immersed in neutralization solution (0.4 M Trizma base in 800 mL water, pH 7.5) for 10 min in dark. Propidium iodide (20 µL of 0.01 mg/mL) was used as fluorescent dye to stain DNA. Slides were placed in dark at room temperature. After 10 min, images were captured using a fluorescence microscope (Nikon ECLIPSE Ni–U, Japan) at an excitation/emission wavelength of 493/632 nm. Microscopic images were analyzed using ImageJ (ij152-win-java8, National Institutes of Health, Bethesda, USA) and OpenComet (OpenComet_imagej_v1.3.1, USA) where the DNA content in the head and tail of the comets were automatically measured by the software. Results of three independent experiments were expressed as tail length ([…]), %DNA in comet tail and comet tail moment.

[19] = 5j 6.4 µM 24 h, H2O2 20 µM 30 min (positive control)

Cc1[nH]nc2nc(N)c3c(N)nc4ccc(Cl)cc4c3c12 [5k]
inhibition at 100 µM ([1]; Homo sapiens): 96.4% | IC50 ([1]; Homo sapiens): 7.25 ± 0.12 µM | ROS production, H2DCF-DA staining [2]: ROS generation | fold increase in activated caspase-9 ([3]; at 2 × IC50, 18 h): 1.4 folds | fold increase in activated caspase-9 ([3]; at IC50, 18 h): 1.1 folds | leaked LDH (cytotoxic effect) [4]: dose dependent increase in leaked LDH | IC50 [5]: 8.21 ± 0.57 µM | morphological features of apoptosis, PI and DAPI staining [6]: Cell detachment, shrinkage of cells and condensation of nuclear material was observed | inhibition at 100 µM [7]: 69.5% | IC50 ([7]; MCF7, 24 h, read-out: IC50 (µM) ± SEM, MCF-7 cell line): 2.03 ± 0.23 µM | mitochondrial membrane potential, ratio of red/green fluorescence (JC-1) [8]: decrease in red/green ratio | fold increase in activated caspase-7 ([9]; at 2 × IC50, 18 h): 1.8 fold | fold increase in activated caspase-7 ([9]; at IC50, 18 h): 1.4 fold

Cc1[nH]nc2nc(N)c3c(N)nc4ccc(F)cc4c3c12 [5j]
mitochondrial membrane potential, ratio of red/green fluorescence (JC-1) [10]: decrease in red/green ratio | morphological features of apoptosis, PI and DAPI staining [11]: Cell detachment, shrinkage of cells and condensation of nuclear material was observed | IC50 [1]: 6.43 ± 0.45 µM | inhibition at 100 µM ([1]; Homo sapiens): 94.8% | IC50 ([1]; Homo sapiens): 6.4 ± 0.45 µM | mode of interaction with DNA (absorption spectra) [12]: non-covalently bound to DNA | IC50 [5]: 27.5 ± 1.32 µM | inhibition at 100 µM [7]: 47.8% | fold increase in activated caspase-9 ([13]; at 2 × IC50, 18 h): 2.2 folds | fold increase in activated caspase-9 ([13]; at IC50, 18 h): 1.4 folds | ROS production, H2DCF-DA staining [14]: ROS generation | cell cycle arrest [15]: G0/G1 arrest | leaked LDH (cytotoxic effect) [16]: dose dependent increase in leaked LDH | fold increase in activated caspase-3/7 ([17]; at 2 × IC50, 18 h): 4.8 folds | fold increase in activated caspase-3/7 ([17]; at IC50, 18 h): about 4 folds | DNA damage in comet assay ([18]; 6.4 µM): DNA damage in treated cells, comparable to positive control | %DNA in tail ± SD ([18]; 5j 6.4 µM 24 h): 41.02 ± 7.61% | Tail length ± SD [18, 19]: 43 ± 10.3 µm | Tail moment ± SD [18, 19]: 23.22 ± 1.61
